Source: ChEMBL document CHEMBL1130930, “In vitro anti-human immunodeficiency virus (HIV) activity of the chromanone derivative, 12-oxocalanolide A, a novel NNRTI” (Bioorg Med Chem Lett, 1998)
pEC50, pIC50: −log10 of the molar value. The source made the active and inactive calls. No cut-off for these calls is given here.

Columns and labels:
AA5 = experiment: (§1) Compound was evaluated for the anti-HIV activity against HIV strain IIIB in AA5 EBV-infected B-cell; assay type: functional, cell-based; settings: Homo sapiens
Homo sapiens [1] = species on record: Homo sapiens; experiment: Compound was evaluated for the anti-HIV activity against HIV strain TEKI in fresh peripheral blood mononuclear cell (PBMC). Value was expressed as EC50; assay type: functional, organism-based
CEM-SS [2] = experiment: Compound was evaluated for the anti-HIV activity against HIV strain IIIB in CEM-SS Value was expressed as EC50; assay type: functional, cell-based; settings: Homo sapiens
CEM-SS [3] = experiment: (§2) Compound was evaluated for the antiviral activity against HIV-1 strain IIIB in CEM-SS cells; assay type: functional, cell-based, Homo sapiens
[4] = tested on: Human immunodeficiency virus 1; experiment: Compound was evaluated for the antiviral activity against compound resistant virus isolate 4 x AZT with amino acid changes in the HIV-1 reverse transcriptase (RT); assay type: functional, organism-based
[5] = tested on: Human immunodeficiency virus 1; experiment: Compound was evaluated for the antiviral activity against compound resistant virus isolate K103N with amino acid changes in the HIV-1 reverse transcriptase (RT); assay type: functional, organism-based
Homo sapiens [6] = species on record: Homo sapiens; experiment: Compound was evaluated for the anti-HIV activity against HIV strain ADA in monocyte macrophages; assay type: functional, organism-based
[7] = tested on: Human immunodeficiency virus 1; experiment: Compound was evaluated for the antiviral activity against compound resistant virus isolate P236L with amino acid changes in the HIV-1 reverse transcriptase (RT); assay type: functional, organism-based
[8] = Compound was evaluated for the anti-HIV activity against HIV strain BaL in monocyte; assay type: functional; settings: Homo sapiens
CEM-SS [9] = experiment: Compound was evaluated for the antiviral activity against HIV-1 strain RF in CEM-SS cells; assay type: functional, cell-based, Homo sapiens
[10] = tested on: Human immunodeficiency virus 1; experiment: Compound was evaluated for the antiviral activity against compound resistant virus isolate K101E with amino acid changes in the HIV-1 reverse transcriptase (RT); assay type: functional, organism-based
[11] = tested on: Human immunodeficiency virus 1; experiment: Compound was evaluated for the antiviral activity against resistant virus isolate IIIB with amino acid changes in the HIV-1 reverse transcriptase (RT); assay type: functional, organism-based
[12] = tested on: Human immunodeficiency virus 1; experiment: Compound was evaluated for the antiviral activity against compound resistant virus isolate Y181C with amino acid changes in the HIV-1 reverse transcriptase (RT); assay type: functional, organism-based
CCRF-CEM [13] = experiment: Compound was evaluated for the anti-HIV activity against HIV strain SK1 in CEM-SS T-cells; assay type: functional, cell-based, Homo sapiens
MT2 = experiment: Compound was evaluated for the anti-HIV activity against HIV strain IIIB in MT2 T-cells; assay type: functional, cell-based, Homo sapiens
[14] = tested on: Human immunodeficiency virus 1; experiment: Compound was evaluated for the antiviral activity against compound resistant virus isolate M184I with amino acid changes in the HIV-1 reverse transcriptase (RT); assay type: functional, organism-based
[15] = Therapeutic index against SIV delta in CEM-SS cells was expressed as IC50/EC50; assay type: cell-based; settings: simian immunodeficiency virus; for TI: cem-ss
[16] = Therapeutic index against HIV-1 strain RF in CEM-SS cells was expressed as IC50/EC50; assay type: organism-based, Human immunodeficiency virus 1; settings: for TI: human immunodeficiency virus 1, cem-ss
U-937 = experiment: (§3) Compound was evaluated for the anti-HIV activity against HIV strain IIIB in U937 monocytic cell; assay type: functional, cell-based; settings: Homo sapiens
CEM-SS [17] = experiment: Compound was evaluated for the antiviral activity against SIV delta in CEM-SS cells; assay type: functional, cell-based, Homo sapiens
[18] = Therapeutic index against HIV-1 strain IIIB in CEM-SS cells was expressed as IC50/EC50; assay type: cell-based, Human immunodeficiency virus 1; settings: for TI: human immunodeficiency virus 1, cem-ss
CEM-SS [19] = experiment: Compound was evaluated for the antiviral activity against HIV-2 strain ROD in CEM-SS cells; assay type: functional, Homo sapiens
[20] = Therapeutic index against HIV-1 strain SK1 in CEM-SS cells was expressed as IC50/EC50; assay type: cell-based, Human immunodeficiency virus 1; settings: for TI: human immunodeficiency virus 1, cem-ss; for selectivity ratio: human immunodeficiency virus 1, CEM-SS cells infected with HIV-1 strain SK1, read-out: TI
Homo sapiens [21] = species on record: Homo sapiens; experiment: Compound was evaluated for the anti-HIV activity against HIV strain ROJO in fresh peripheral blood mononuclear cell (PBMC); assay type: functional, organism-based
CEM-SS [22] = experiment: Compound was evaluated for the antiviral activity against HIV-1 strain SK1 in CEM-SS cells; assay type: functional, cell-based, Homo sapiens
B-cell = experiment: as §1; assay type: functional, cell-based; settings: Homo sapiens
Homo sapiens [23] = species on record: Homo sapiens; experiment: Compound was evaluated for the anti-HIV activity against HIV strain TEKI in fresh peripheral blood mononuclear cell (PBMC); assay type: functional, organism-based
[24] = tested on: Human immunodeficiency virus 1; experiment: Compound was evaluated for the antiviral activity against compound resistant virus isolate T1391 with amino acid changes in the HIV-1 reverse transcriptase (RT); assay type: functional, organism-based
CCRF-CEM [25] = experiment: Compound was evaluated for the anti-HIV activity against HIV strain IIIB in 174 x CEM T-cell:B-cell fusion; assay type: functional, cell-based; settings: Homo sapiens
CCRF-CEM [26] = experiment: Compound was evaluated for the anti-HIV activity against HIV strain IIIB in CEM-SS T-cells; assay type: functional, cell-based; settings: Homo sapiens
Homo sapiens [27] = species on record: Homo sapiens; experiment: Compound was evaluated for the anti-HIV activity against HIV strain BaL in monocyte macrophages; assay type: functional, organism-based
[28] = tested on: Human immunodeficiency virus 1; experiment: Compound was evaluated for the antiviral activity against compound resistant virus isolate Y188H with amino acid changes in the HIV-1 reverse transcriptase (RT); assay type: functional, organism-based
[29] = as §3; assay type: functional, cell-based; settings: Homo sapiens, U-937
[30] = tested on: Human immunodeficiency virus 1; experiment: Compound was evaluated for the antiviral activity against compound resistant virus isolate Y181C/K103N with amino acid changes in the HIV-1 reverse transcriptase (RT); assay type: functional, organism-based
[31] = Therapeutic index against HIV-2 strain ROD in CEM-SS cells was expressed as IC50/EC50; assay type: organism-based; settings: human immunodeficiency virus 2, CEM-SS cells infected with HIV-2 strain ROD; read-out: TI
[32] = tested on: Human immunodeficiency virus 1; experiment: Compound was evaluated for the antiviral activity against compound resistant virus isolate L100I with amino acid changes in the HIV-1 reverse transcriptase (RT); assay type: functional, organism-based
[33] = tested on: Human immunodeficiency virus 1; experiment: Compound was evaluated for the antiviral activity against compound resistant virus isolate V1081 with amino acid changes in the HIV-1 reverse transcriptase (RT); assay type: functional, organism-based
CEM-SS [34] = experiment: Compound was evaluated for the antiviral activity against HIV-1 strain SK1 in CEM-SS cells; IA: Inactive; assay type: functional, cell-based; settings: Homo sapiens
CEM-SS [35] = experiment: as §2; assay type: functional; settings: Homo sapiens
[36] = tested on: Human immunodeficiency virus 1; experiment: Compound was evaluated for the antiviral activity against compound resistant virus isolate K103E with amino acid changes in the HIV-1 reverse transcriptase (RT)

CCCc1cc(=O)oc2c3c(c4c(c12)OC(C)(C)C=C4)O[C@H](C)[C@@H](C)C3=O (racemic)
pEC50 (AA5): 5.55
pEC50 (Homo sapiens [1]): < 5.00
pEC50 (CEM-SS [2]): 6.28
pEC50 (CEM-SS [3]; cem-ss): 6.29
pIC50 (CEM-SS [3]; cem-ss): 5.25
pEC50 [4]: 5.44
pEC50 [5]: < 4.00
pEC50 (Homo sapiens [6]): 6.48
pEC50 [7]: 5.69
pEC50 [8]: 6.29
pEC50 (CEM-SS [9]; cem-ss): 6.40
pIC50 (CEM-SS [9]; cem-ss): 5.24
pEC50 [10]: < 4.00
pEC50 [11]: 6.49
pEC50 [12]: 6.23
pEC50 (CCRF-CEM [13]): 6.57
pEC50 (MT2): 6.25
pEC50 [14]: 6.28
TI [15]: 5
TI [16]: 14
pEC50 (U-937): 5.52
pIC50 (CEM-SS [17]; cem-ss): 5.18
TI [18]: 11
EC25 (CEM-SS [19]): 5570 nM
IC25 (CEM-SS [19]): 13800 nM
TI [20]: 37
pEC50 (Homo sapiens [21]): 5.66
pIC50 (CEM-SS [22]; cem-ss): 5.20

CCCc1cc(=O)oc2c3c(c4c(c12)OC(C)(C)C=C4)O[C@H](C)[C@@H](C)C3=O (stereo in doubt; (+)-2)
pEC50 (B-cell): < 5.00
pEC50 (CEM-SS [3]; cem-ss): 6.00
pEC50 ([4]; Human immunodeficiency virus 1): 5.56
pEC50 (Homo sapiens [23]): < 5.00
pEC50 [5]: 4.51
pEC50 (Homo sapiens [6]): 5.75
pEC50 [7]: 5.17
pEC50 (CEM-SS [9]; cem-ss): 6.05
pEC50 [24]: < 4.00
pEC50 [10]: 4.58
pEC50 (CCRF-CEM [25]): < 5.00
pEC50 [11]: 5.83
pEC50 (CCRF-CEM [26]): 5.96
pEC50 [12]: 5.68
pEC50 (Homo sapiens [27]): 5.66
pEC50 (CCRF-CEM [13]): 6.21
pEC50 [28]: < 4.00
pEC50 (MT2): 5.58
pEC50 [14]: 4.22
TI [15]: 6
TI [16]: > 11
pEC50 [29]: < 5.00
pEC50 (CEM-SS [17]; cem-ss): 5.78
TI [18]: > 10
EC25 (CEM-SS [19]): 15900 nM
IC25 (CEM-SS [19]): 34800 nM
pEC50 [30]: 5.21
selectivity ratio [31]: 2
pEC50 [32]: < 4.00
TI [20]: > 58
pEC50 (Homo sapiens [21]; Homo sapiens): 5.58
pEC50 [33]: < 4.00
pEC50 (CEM-SS [22]; cem-ss): 6.77

CCCc1cc(=O)oc2c3c(c4c(c12)OC(C)(C)C=C4)O[C@H](C)[C@@H](C)C3=O (stereo in doubt; (-)-2)
pIC50 (CEM-SS [3]; Homo sapiens, CEM-SS): < 5.00
pEC50 (CEM-SS [3]; cem-ss): 5.73
pIC50 (CEM-SS [9]; Homo sapiens, CEM-SS): < 5.00
pEC50 (CEM-SS [9]; cem-ss): 5.47
TI [15]: 2
TI [16]: > 3
pIC50 (CEM-SS [17]; Homo sapiens, CEM-SS): < 5.00
pEC50 (CEM-SS [17]; cem-ss): 5.21
TI [18]: > 5
selectivity ratio [20]: > 37
pEC50 (CEM-SS [22]; Homo sapiens, CEM-SS): 6.57
pIC50 (CEM-SS [22]; Homo sapiens, CEM-SS): < 5.00

CCCc1cc(=O)oc2c3c(c4c(c12)OC(C)(C)C=C4)O[C@H](C)[C@@H](C)[C@@H]3O [CALANOLIDE A]
pEC50 (CEM-SS [3]; Homo sapiens, CEM-SS): 6.85
pEC50 (CEM-SS [9]; cem-ss): 6.77
EC25 (CEM-SS [34]): inactive

Nc1ccn([C@H]2CC[C@@H](CO)O2)c(=O)n1 [ZALCITABINE]
pEC50 (CEM-SS [3]; Homo sapiens, CEM-SS): 7.70
pEC50 (CEM-SS [9]; Homo sapiens, CEM-SS): 7.30
pIC50 (CEM-SS [9]; Homo sapiens, CEM-SS): < 5.30
EC25 (CEM-SS [35]): > 5000 nM
selectivity ratio ([15]; CEM-SS cells infected with SIV delta, read-out: TI): > 26
selectivity ratio ([16]; human immunodeficiency virus 1, CEM-SS cells infected with HIV-1 strain RF, read-out: TI): > 100
pEC50 (CEM-SS [17]; Homo sapiens, CEM-SS): 6.72
pIC50 (CEM-SS [17]; Homo sapiens, CEM-SS): < 5.30
selectivity ratio ([18]; human immunodeficiency virus 1, CEM-SS cells infected with HIV-1 strain IIIB, read-out: TI): > 250
EC25 (CEM-SS [19]; Homo sapiens, CEM-SS, read-out: EC25): 30 nM
IC25 (CEM-SS [19]; Homo sapiens, CEM-SS, read-out: IC25): > 10000 nM
selectivity ratio [31]: > 333
selectivity ratio [20]: > 100
pEC50 (CEM-SS [22]; Homo sapiens, CEM-SS): 7.30
pIC50 (CEM-SS [22]; Homo sapiens, CEM-SS): < 5.30

Cc1cn([C@H]2C[C@H](N=[N+]=[N-])[C@@H](CO)O2)c(=O)[nH]c1=O [ZIDOVUDINE]
pEC50 ([4]; Human immunodeficiency virus 1): < 6.00
pEC50 [24]: 7.40
pEC50 ([11]; Human immunodeficiency virus 1): 8.05
pEC50 ([12]; Human immunodeficiency virus 1): 8.22
pEC50 [36]: 8.40
pEC50 [28]: > 8.52
pEC50 ([14]; Human immunodeficiency virus 1): 8.00
pEC50 [30]: > 7.52
pEC50 [32]: > 8.52
